Experimental data as given in patent US20060063820A1, “2,6-dihalo-4-(3,3-dichloro-allyloxy)-benzylalcohole derivatives having insecticidal and acaricidal properties” (priority 2002, published 2006).
Like-named read-outs stand apart in the source and are kept apart here. Values belong to the molecule of their own block, whether it stands above or below them.

Assays:
Heliothis virescens = test: Action against Heliothis virescens caterpillars (sprayed soybean plants); assay type: in vivo; settings: 144 h, read-out: percentage reduction in population and percentage reduction in feeding damage (% activity)
Procedure: (§1) Young soybean plants are sprayed with an aqueous emulsion spray mixture comprising 400 ppm of active ingredient. After the spray-coating has dried, the soybean plants are populated with 10 caterpillars of Heliothis virescens in the first stage and placed in a plastics container. Evaluation is made 6 days later. The percentage reduction in population and the percentage reduction in feeding damage (% activity) are determined by comparing the number of dead caterpillars and the feeding damage on the treated plants with that on the untreated plants.

Plutella xylostella = test: Action against Plutella xylostella caterpillars (sprayed cabbage plants); assay type: in vivo; settings: 72 h, read-out: percentage reduction in population and percentage reduction in feeding damage (% activity)
Procedure: as §1, with “cabbage” for “soybean”, “Plutella xylostella” for “Heliothis virescens”, “third” for “first”, “3” for “6”

Spodoptera littoralis = test: Action against Spodoptera littoralis (sprayed soybean plants); assay type: in vivo; settings: 72 h, read-out: percentage reduction in population and percentage reduction in feeding damage (% activity)
Procedure: Young soybean plants are sprayed with an aqueous emulsion spray mixture comprising 400 ppm of test compound and, after the spray-coating has dried, the plants are populated with 10 caterpillars of Spodoptera littoralis in the first stage and then placed in a plastics container. 3 days later, the percentage reduction in population and the percentage reduction in feeding damage (% activity) are determined by comparing the number of dead caterpillars and the feeding damage on the treated plants with that on untreated plants.

[1] = 400 ppm spray mixture, soybean plants, caterpillars in the first stage, evaluation 6 days later
[2] = 400 ppm spray mixture, cabbage plants, caterpillars in the third stage, evaluation 3 days later
[3] = 400 ppm spray mixture, soybean plants, caterpillars in the first stage, 3 days later

Structure (SMILES): FC(F)(F)Oc1ccc(C2OCC(COCc3c(Cl)cc(OCC=C(Cl)Cl)cc3Cl)O2)cc1 (single isomer, unassigned) [Compound 2.3, 4-[2,6-dichloro-4-(3,3-dichloroallyloxy)-benzyloxymethyl]-2-(4-trifluoromethoxyphenyl)-[1,3]dioxolane]
inhibition at 400 ppm (Heliothis virescens; [1]): > 80%
inhibition at 400 ppm (Plutella xylostella; [2]): > 80%
inhibition at 400 ppm (Spodoptera littoralis; [3]): > 80%

Structure (SMILES): FC(F)(F)c1ccc(OCc2c(Cl)cc(OCC=C(Cl)Cl)cc2Cl)cc1 [Compound 1.2]
inhibition at 400 ppm (Heliothis virescens; [1]): > 80%
inhibition at 400 ppm (Spodoptera littoralis; [3]): > 80%

Structure (SMILES): C#CCOc1cccc(OCc2c(Cl)cc(OCC=C(Cl)Cl)cc2Cl)c1 [Compound 1.3]
inhibition at 400 ppm (Heliothis virescens): > 80%
inhibition at 400 ppm (Plutella xylostella): > 80%
inhibition at 400 ppm (Spodoptera littoralis): > 80%

Structure (SMILES): ClC(Cl)=CCOc1cc(Cl)c(COc2ccc3c(c2)OCO3)c(Cl)c1 [Compound 1.8]
inhibition at 400 ppm (Plutella xylostella): > 80%

Structure (SMILES): ClC(Cl)=CCOc1cc(Cl)c(COc2ccnc3cc(Cl)ccc23)c(Cl)c1 [Compound 1.12]
inhibition at 400 ppm (Heliothis virescens): > 80%
inhibition at 400 ppm (Plutella xylostella): > 80%
inhibition at 400 ppm (Spodoptera littoralis): > 80%

Structure (SMILES): FC(F)(F)c1cc(OCc2c(Cl)cc(OCC=C(Cl)Cl)cc2Cl)ccn1 [Compound 1.14]
inhibition at 400 ppm (Plutella xylostella; [2]): > 80%

Structure (SMILES): Cc1nsc(Oc2cccc(OCc3c(Cl)cc(OCC=C(Cl)Cl)cc3Cl)c2)n1 [Compound 1.21]
inhibition at 400 ppm (Plutella xylostella; [2]): > 80%

Structure (SMILES): ClC(Cl)=CCOc1cc(Cl)c(COCC2COC(c3ccc(Br)s3)O2)c(Cl)c1 (stereo not shown) [Compound 2.8]
inhibition at 400 ppm (Heliothis virescens; [1]): > 80%
inhibition at 400 ppm (Plutella xylostella; [2]): > 80%
inhibition at 400 ppm (Spodoptera littoralis; [3]): > 80%

Structure (SMILES): FC1(F)Oc2cccc(C3OCC(COCc4c(Cl)cc(OCC=C(Cl)Cl)cc4Cl)O3)c2O1 (stereo not shown) [Compound 2.10]
inhibition at 400 ppm (Heliothis virescens; [1]): > 80%
inhibition at 400 ppm (Plutella xylostella; [2]): > 80%
inhibition at 400 ppm (Spodoptera littoralis; [3]): > 80%

Structure (SMILES): O=[N+]([O-])c1cc(C2OCC(COCc3c(Cl)cc(OCC=C(Cl)Cl)cc3Cl)O2)cs1 (stereo not shown) [Compound 2.12]
inhibition at 400 ppm (Heliothis virescens; [1]): > 80%
inhibition at 400 ppm (Plutella xylostella; [2]): > 80%
inhibition at 400 ppm (Spodoptera littoralis; [3]): > 80%

Structure (SMILES): Cn1nc(C2OCC(COCc3c(Cl)cc(OCC=C(Cl)Cl)cc3Cl)O2)c(C(F)(F)F)c1Cl (stereo not shown) [Compound 2.15]
inhibition at 400 ppm (Heliothis virescens; [1]): > 80%
inhibition at 400 ppm (Plutella xylostella; [2]): > 80%
inhibition at 400 ppm (Spodoptera littoralis; [3]): > 80%

Structure (SMILES): N#Cc1c(Br)sc(C2OCC(COCc3c(Cl)cc(OCC=C(Cl)Cl)cc3Cl)O2)c1Cl (stereo not shown) [Compound 2.17]
inhibition at 400 ppm (Heliothis virescens; [1]): > 80%
inhibition at 400 ppm (Plutella xylostella; [2]): > 80%

Structure (SMILES): CC(C)Oc1ccc(C2(C(=O)OCc3c(Cl)cc(OCC=C(Cl)Cl)cc3Cl)CC2)cc1 [Compound 3.12]
inhibition at 400 ppm (Heliothis virescens; [1]): > 80%
inhibition at 400 ppm (Plutella xylostella; [2]): > 80%
inhibition at 400 ppm (Spodoptera littoralis; [3]): > 80%

Structure (SMILES): O=C(OCc1c(Cl)cc(OCC=C(Cl)Cl)cc1Cl)C1(c2ccc(OC(F)(F)F)cc2)CC1 [Compound 3.15]
inhibition at 400 ppm (Heliothis virescens; [1]): > 80%
inhibition at 400 ppm (Plutella xylostella; [2]): > 80%
inhibition at 400 ppm (Spodoptera littoralis; [3]): > 80%

melting point: 63 to 64 °C
Structure (SMILES): O=C(OCc1c(Cl)cc(OCC=C(Cl)Cl)cc1Cl)C1(c2ccc(F)cc2F)CC1 [Compound 3.16]

melting point: 107 to 108 °C
Structure (SMILES): O=C(OCc1c(Cl)cc(OCC=C(Cl)Cl)cc1Cl)C1(c2ccc([N+](=O)[O-])cc2)CC1 [Compound 3.17]

Structure (SMILES): C#COc1cccc(OCCOCc2c(Cl)cc(OCC=C(Cl)Cl)cc2Cl)c1 [Compound 4.4, 1,3-dichloro-5-(3,3-dichloroallyloxy)-2-[2-(3-ethynyloxy-phenoxy)-ethoxymethyl]-benzene]
inhibition at 400 ppm (Heliothis virescens; [1]): > 80%
inhibition at 400 ppm (Plutella xylostella; [2]): > 80%

melting point: 95 to 97 °C
Structure (SMILES): Cc1nsc(Oc2ccc(OCCOCc3c(Cl)cc(OCC=C(Cl)Cl)cc3Cl)cc2)n1 [Compound 4.10]

Structure (SMILES): FC(F)(F)c1ccc(OCCOCc2c(Cl)cc(OCC=C(Cl)Cl)cc2Cl)nc1 [Compound 4.11]
inhibition at 400 ppm (Heliothis virescens; [1]): > 80%
inhibition at 400 ppm (Plutella xylostella; [2]): > 80%
inhibition at 400 ppm (Spodoptera littoralis; [3]): > 80%

Structure (SMILES): FC(F)(F)c1ccc(COCc2c(Cl)cc(OCC=C(Cl)Cl)cc2Cl)cc1 [Compound 5.6]
inhibition at 400 ppm (Heliothis virescens; [1]): > 80%
inhibition at 400 ppm (Plutella xylostella; [2]): > 80%
inhibition at 400 ppm (Spodoptera littoralis; [3]): > 80%

Structure (SMILES): O=[N+]([O-])c1cccc(COCc2c(Cl)cc(OCC=C(Cl)Cl)cc2Cl)c1 [Compound 5.9, 1,3-dichloro-5-(3,3-dichloroallyloxy)-2-(3-nitrobenzyloxymethyl)-benzene]
inhibition at 400 ppm (Heliothis virescens): > 80%
inhibition at 400 ppm (Plutella xylostella): > 80%

Structure (SMILES): ClC(Cl)=CCOc1cc(Cl)c(COCc2cnc(Cl)c(Cl)c2)c(Cl)c1 [Compound 5.14]
inhibition at 400 ppm (Heliothis virescens): > 80%
inhibition at 400 ppm (Plutella xylostella): > 80%
inhibition at 400 ppm (Spodoptera littoralis): > 80%

melting point: 215 to 216 °C
Structure (SMILES): O=C(NCc1c(Cl)cc(OCC=C(Cl)Cl)cc1Cl)Nc1ccccc1C(F)(F)F [Compound 6.23, 1-[2,6-dichloro-4-(3,3-dichloroallyloxy)-benzyl]-3-(2-trifluoromethylphenyl)-urea]
inhibition at 400 ppm (Heliothis virescens; [1]): > 80%
inhibition at 400 ppm (Plutella xylostella; [2]): > 80%
inhibition at 400 ppm (Spodoptera littoralis; [3]): > 80%

Structure (SMILES): COC(=O)COCc1c(Cl)cc(OCC=C(Cl)Cl)cc1Cl [Compound 7.5]
inhibition at 400 ppm (Heliothis virescens; [1]): > 80%
inhibition at 400 ppm (Plutella xylostella; [2]): > 80%
inhibition at 400 ppm (Spodoptera littoralis; [3]): > 80%

Structure (SMILES): O=C(OCCOCc1c(Cl)cc(OCC=C(Cl)Cl)cc1Cl)c1ccc(C(F)(F)F)cc1 [Compound 8.11]
inhibition at 400 ppm (Spodoptera littoralis; [3]): > 80%

Structure (SMILES): O=C(OCCOCc1c(Cl)cc(OCC=C(Cl)Cl)cc1Cl)c1ccc(OC(F)(F)F)cc1 [Compound 8.12]
inhibition at 400 ppm (Heliothis virescens; [1]): > 80%
inhibition at 400 ppm (Plutella xylostella; [2]): > 80%
inhibition at 400 ppm (Spodoptera littoralis; [3]): > 80%
